Measured values reported in PubChem BioAssay AID1259411 (Chemical Carcinogenesis Research Information System (CCRIS), 2018).
Activity calls are given as the source filed them. The rule behind the calls is not given here.

System: rodent carcinogenicity bioassays, tumor incidence
Experiment: CCRIS carcinogenicity studies
Outline: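 NCI-built, expert-reviewed records of carcinogenicity and related test outcomes (mutagenicity, tumor promotion/inhibition) compiled from published and report sources, historical span 1985-2011, not updated.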

Cc1c2ccccc2c(C)c2c1ccc1ccccc12
carcinogen call (Species: FISH, Strain/Sex: KING COBRA GUPPY/ MALE, FEMALE, Route: IMMERSION, Dose: 0, 0.86, 3.18, 0.90 PPB (LOW DOSE) GIVEN AS SEPARATE DOSES OVER A 4 WK PERIOD, EACH DOSE GIVEN 6 HR/D FOR 1 DAY, 0, 16.3, Dose: 0, 0.86, 3.18, 0.90 PPB (LOW DOSE) GIVEN AS SEPARATE DOSES OVER A 4 WK PERIOD, EACH DOSE GIVEN 6 HR/D FOR 1 DAY, 0, 16.3, Tumor Site: Type of Lesion: LIVER: HEPATOCELLULAR ADENOMA, HEPATOCELLULAR CARCINOMA): active; positive
carcinogen call (Species: FISH, Strain/Sex: SHEEPSHEAD MINNOW/MALE, FEMALE, Route: IMMERSION, Dose: 0, 1, 30, 1200 PPB APPROXIMATE CONCENTRATIONS ADMINISTERED 1/WK FOR 6 OR 24 HR FOR 1 OR 2 WK (STUDY DURATION: 39 WK), Dose: 0, 1, 30, Tumor Site: Type of Lesion: LIVER: ALTERED FOCI, HEPATOCELLULAR ADENOMA OR HEPATOCELLULAR CARCINOMA): active; positive
carcinogen call (Species: HAMSTER, Strain/Sex: SYRIAN/FEMALE, Route: TONGUE, Dose: 0, 0.10 ML OF A 0.5% ACETONE SOLUTION TO BORDER OF MIDDLE THIRD PORTION OF TONGUE 3/WK FOR 4 WK (STUDY DURATION: 11 WK)): inactive; negative
carcinogen call (Species: HAMSTER, Strain/Sex: SYRIAN/FEMALE, Route: TONGUE, Dose: 0, 0.10 ML OF A 0.5% ACETONE SOLUTION TO BORDER OF MIDDLE THIRD PORTION OF TONGUE 3/WK FOR 6 WK (STUDY DURATION: 11 WK), Tumor Site: Type of Lesion: TONGUE: CARCINOMA): active; positive
carcinogen call (Species: HAMSTER, Strain/Sex: SYRIAN/FEMALE, Route: TONGUE, Dose: 0, 0.10 ML OF A 0.5% ACETONE SOLUTION TO BORDER OF MIDDLE THIRD PORTION OF TONGUE 3/WK FOR 8 WK (STUDY DURATION: 11 WK), Tumor Site: Type of Lesion: TONGUE: CARCINOMA): active; positive
carcinogen call (Species: HAMSTER, Strain/Sex: SYRIAN/MALE,FEMALE, Route: DERMAL, Dose: 80 µL OF 1% SOLN IN MINERAL OIL ONCE OR 1/WK FOR 3 WK, Tumor Site: Type of Lesion: INTEGUMENTARY SYSTEM (SKIN): PAPILLOMA, SQUAMOUS CELL CARCINOMA, ANGIOMA, MELANOTIC AND ADNEXAL TUMOR): active; positive
carcinogen call (Species: HAMSTER, Strain/Sex: SYRIAN/MALE,FEMALE, Route: DERMAL, Dose: 80 µL OF 1% SOLN IN MINERAL OIL ONCE, Tumor Site: Type of Lesion: INTEGUMENTARY SYSTEM (SKIN): AMELANOTIC DERMAL MELANOCYTOMA): active; positive
carcinogen call (Species: HAMSTER, Strain/Sex: SYRIAN/MALE,FEMALE, Route: SUBCUTANEOUS, Dose: 0.005-20 MG IN 1 ML OLIVE OIL ONCE, Tumor Site: Type of Lesion: INJECTION SITE: SARCOMA): active; positive
carcinogen call (Species: MOUSE, Strain/Sex: ALBINO/MALE, Route: DERMAL, Dose: 0.05% IN OLIVE OIL OR ACETONE, 0.2 ML 2/WK, Tumor Site: Type of Lesion: INTEGUMENTARY SYSTEM (SKIN)): active; positive
carcinogen call (Species: MOUSE, Strain/Sex: B6C3F1/MALE, Route: INTRAPERITONEAL, Dose: 0, 0.00075, 0.0015, 0.003 UMOL/G IN 10 µL/G TRIOCTANOIN ONCE ON 12 D OF AGE (STUDY DURATION: 10 MO), Dose: 0, 0.00075, 0.0015, 0.003 UMOL/G IN 10 µL/G TRIOCTANOIN ONCE ON 12 D OF AGE (STUDY DURATION: 10 MO), Tumor Site: Type of Lesion: LIVER: HEPATOMA): active; positive
carcinogen call (Species: MOUSE, Strain/Sex: B6C3F1/MALE, Route: INTRAPERITONEAL, Dose: 0, 0.003, 0.01, 0.03 UMOL/G IN 10 µL/G TRIOCTANOIN ONCE ON 12 D OF AGE (STUDY DURATION: 8.5 MO), Dose: 0, 0.003, 0.01, 0.03 UMOL/G IN 10 µL/G TRIOCTANOIN ONCE ON 12 D OF AGE (STUDY DURATION: 8.5 MO), Tumor Site: Type of Lesion: LIVER: HEPATOMA): active; positive
carcinogen call (Species: MOUSE, Strain/Sex: B6C3F1/MALE, Route: INTRAPERITONEAL, Dose: 0, 0.01 UMOL/G IN 10 µL/G TRIOCTANOIN ON D 12 OF AGE (STUDY DURATION: 10 MO), Tumor Site: Type of Lesion: LIVER: HEPATOMA): active; positive
carcinogen call (Species: MOUSE, Strain/Sex: BALB/FEMALE, Route: GAVAGE, Dose: 0.5-2 MG IN ALMOND OIL 1/2 WK OR 2/WK FOR 8-10 WK, Tumor Site: Type of Lesion: OVARIES: GRANULOSA CELL TUMOR): active; positive
carcinogen call (Species: MOUSE, Strain/Sex: BALB, Route: SUBCUTANEOUS, Dose: 30 UG IN 0.02 ML OF 1% AQ GEL SUSPENDED ONCE, Tumor Site: Type of Lesion: LUNG: ADENOMA, ADENOCARCINOMA): active; positive
carcinogen call (Species: MOUSE, Strain/Sex: C57BL/FEMALE, Route: DERMAL, Dose: 2.5 MG OF 0.5% SOLN IN 0.5 ML OLIVE OIL 1/2 WK FOR LIFE, Tumor Site: Type of Lesion: INTEGUMENTARY SYSTEM (SKIN)): active; positive
carcinogen call (Species: MOUSE, Strain/Sex: C57BL, Route: DERMAL, Dose: 0.5 ML OF 0.5% SOLN IN OLIVE OIL 1/2 WK FOR 6 WK, Tumor Site: Type of Lesion: OVARIES): active; positive
carcinogen call (Species: MOUSE, Strain/Sex: C57BL, Route: DERMAL, Dose: 0.5 ML OF 0.5% SOLN IN OLIVE OIL 1/2 WK FOR 6 WK, Tumor Site: Type of Lesion: OVARIES, MAMMARY GLAND): active; positive
carcinogen call (Species: MOUSE, Strain/Sex: CBA, Route: SUBCUTANEOUS, Dose: 30 UG IN 15 µL OF 1% AQ GEL ONCE, Tumor Site: Type of Lesion: LUNG): active; positive
carcinogen call (Species: MOUSE, Strain/Sex: CD-1/FEMALE, Route: SUBCUTANEOUS, Dose: 20 MG/KG IN 1% GEL SOLN WITHIN 24 HR OF BIRTH, Tumor Site: Type of Lesion: LUNG: ADENOMA, ADENOCARCINOMA): active; positive
carcinogen call (Species: MOUSE, Strain/Sex: CD-1/MALE, Route: SUBCUTANEOUS, Dose: 20 MG/KG IN 1% GEL SOLN WITHIN 24 HR OF BIRTH, Tumor Site: Type of Lesion: LUNG: ADENOMA, ADENOCARCINOMA, LIVER: ADENOMA): active; positive
carcinogen call (Species: MOUSE, Strain/Sex: ICR, Route: SUBCUTANEOUS, Dose: 0.001, 0.01, 0.1 MG IN 0.05 ML TRICAPRYLIN, Dose: 0.001, 0.01, 0.1 MG IN 0.05 ML TRICAPRYLIN, Tumor Site: Type of Lesion: INJECTION SITE: FIBROSARCOMA, SQUAMOUS CELL CARCINOMA, SARCOMA): active; positive
carcinogen call (Species: MOUSE, Strain/Sex: MALE,FEMALE, Route: DERMAL, Dose: 0.1 ML OF 0.1% SOLN IN ACETONE 1/WK FOR 9 WK, Tumor Site: Type of Lesion: INTEGUMENTARY SYSTEM (SKIN): PAPILLOMA, MALIGNANT PAPILLOMA): active; positive
carcinogen call (Species: MOUSE, Strain/Sex: SENCAR/FEMALE, Route: GAVAGE, Dose: 0, 20, 60, 200 UG IN 0.1 ML CORN OIL 1/D 5 D/WK FOR 6 WK (STUDY DURATION: 53 WK), Dose: 0, 20, 60, 200 UG IN 0.1 ML CORN OIL 1/D 5 D/WK FOR 6 WK (STUDY DURATION: 53 WK), Tumor Site: Type of Lesion: LYMPHATIC SYSTEM: LYMPHOMA, MAMMARY GLAND: CARCINOMA): active; positive
carcinogen call (Species: MOUSE, Strain/Sex: SWISS/FEMALE, Route: DERMAL, Dose: 0, 1, 4, 8 NMOL IN 100 µL ACETONE 2/WK FOR 40 WK (STUDY DURATION: 48 WK), Dose: 0, 1, 4, 8 NMOL IN 100 µL ACETONE 2/WK FOR 40 WK (STUDY DURATION: 48 WK), Tumor Site: Type of Lesion: SKIN: TUMORS): active; positive
carcinogen call (Species: MOUSE, Strain/Sex: SWISS/FEMALE, Route: DERMAL, Dose: 20-500 UG IN ACETONE ONCE, Tumor Site: Type of Lesion: INTEGUMENTARY SYSTEM (SKIN): SQUAMOUS CELL CARCINOMA, SARCOMA, EPITHELIOMA): active; positive
carcinogen call (Species: MOUSE, Strain/Sex: SWISS/FEMALE, Route: DERMAL, Dose: 100, 200 UG IN 50 µL ACETONE ONCE, Tumor Site: Type of Lesion: INTEGUMENTARY SYSTEM (SKIN): PAPILLOMA, CARCINOMA, SARCOMA): active; positive
carcinogen call (Species: MOUSE, Strain/Sex: SWISS/MALE,FEMALE, Route: SUBCUTANEOUS, Dose: 0.9 MG SUSPENDED IN 0.45 ML 1% AQ GEL ONCE, Tumor Site: Type of Lesion: INJECTION SITE: FIBROSARCOMA, SQUAMOUS CELL CARCINOMA): active; positive
